For the test, the target named is T1, GLP-1R (Homo sapiens, UniProt P43220).
T1 construct: host or cells: CRE-bla CHO-K1
T1 sequence (P43220 24-463): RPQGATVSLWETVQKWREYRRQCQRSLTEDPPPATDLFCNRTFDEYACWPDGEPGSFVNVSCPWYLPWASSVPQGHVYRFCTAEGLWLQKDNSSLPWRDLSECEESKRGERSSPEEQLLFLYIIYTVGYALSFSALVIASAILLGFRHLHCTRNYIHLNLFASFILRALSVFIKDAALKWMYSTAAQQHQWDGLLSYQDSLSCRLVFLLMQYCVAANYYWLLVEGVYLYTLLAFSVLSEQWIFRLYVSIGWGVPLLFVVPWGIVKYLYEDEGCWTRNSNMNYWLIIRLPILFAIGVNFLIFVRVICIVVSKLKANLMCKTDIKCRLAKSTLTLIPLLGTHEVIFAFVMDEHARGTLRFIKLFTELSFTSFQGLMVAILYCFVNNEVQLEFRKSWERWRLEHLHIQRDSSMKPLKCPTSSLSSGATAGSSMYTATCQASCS
T1 sequence (P01275 100-127 partner limits assumed): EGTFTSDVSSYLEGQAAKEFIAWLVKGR
Kind of test: EC20 GLP-1(9-36) PAM cAMP assay: dose response of compound in the presence of fixed concentration of GLP-1(9-36). To be noted: GLP-1R CRE-bla CHO-K1 cells, compound dose response in presence of fixed concentration of GLP-1(9-36). Type of test: cell-based. How it is done:
EC20 GLP-1(9-36) PAM cAMP Assay: Dose Response of Compound in the Presence of Fixed Concentration of GLP-1 (9-36).
GLP-1R CRE-bla CHO-K1 cells cultured in growth medium (DMEM-High glucose, 10% dialyzed FBS, 0.1 mM NEAA, 25 mM Hepes, 100 U/mL penicillin/100 μg/mL streptomycin, 5 μg/mL Blasticidin, 600 μg/mL Hygromycin) were tryspsinized and plated in suspension into 384 well white flat bottom plates at 5000 cells/well in 12 μL assay buffer (Hanks Balanced Salt solution, 10 mM Hepes, 0.1% BSA, pH 7.4). A 5× compound dose response curve (12-point) was generated in assay buffer containing 1.5 mM IBMX, 12.5% DMSO. GLP-1(9-36) was diluted to 4.2 μM in assay buffer containing 1.5 mM IBMX and 12.5% DMSO. The 5× compound dose response was added (3 μL), followed by 0.5 μL of GLP-1(9-36) and cells were incubated for 30 min at 37° C. Direct detection of cAMP was carried out using DiscoveRx HitHunter cAMP kit according to manufacturer's instructions and luminescence was read using a SpectraMax M5 plate reader. Luminescence was converted to total cAMP using a cAMP standard curve and data was analyzed by non-linear regression to determine the EC50 and Emax.
GLP-1(7-36): […]-NH2. GLP-1(9-36): […]-NH2. GLP-1(7-36) was purchased from GenScript. GLP-1(9-36) was purchased from Biopeptide Co., Inc.
For orientation: cAMP levels reflect the balance of adenylyl cyclase and phosphodiesterase activity.
In the case of `CCCCCCCOc1ccc(-c2cnc(-c3ccc(C[C@H](NC(=O)c4ccc(CCC)cc4)C(=O)O)cc3)nc2)cc1` [Compound 101], the EC50 (usually the concentration needed to bring the measured effect to its halfway point) was 800 to 2500 nM.

For the compound `CCCCCCCOc1ccc(-c2cnc(-c3ccc(C[C@H](NC(=O)c4ccc(N)cc4)C(=O)O)cc3)nc2)cc1` [Compound 102], the EC50 lay in the range of 800 to 2500 nM.

As to `CCCCCCCOc1ccc(-c2cnc(-c3ccc(C[C@H](NC(=O)c4cccc(N)c4)C(=O)O)cc3)nc2)cc1` [Compound 104], the EC50 is 800 to 2500 nM.

Consider `CCCCCCCOc1ccc(-c2cnc(-c3ccc(C[C@H](NC(=O)c4cccc(C#N)c4)C(=O)O)cc3)nc2)cc1` [Compound 105], for which the EC50 was in the range of 5000 to 10000 nM.

In the case of `CCCCCCCOc1ccc(-c2cnc(-c3ccc(C[C@H](NC(=O)c4ccc(C(C)(C)C)cc4OC)C(=O)O)cc3)nc2)cc1` [Compound 106], the EC50 lay within 800 to 2500 nM.

Take `CCCCCCCOc1ccc(-c2cnc(-c3ccc(C[C@H](NC(=O)c4ccc(CCCC)cc4)C(=O)O)cc3)nc2)cc1` [Compound 107]: the EC50 was 800 to 2500 nM.

For the compound `CCCCCCCOc1ccc(-c2cnc(-c3ccc(C[C@H](NC(=O)c4ccc(OCC)cc4)C(=O)O)cc3)nc2)cc1` [Compound 108], the EC50 fell in the range of 800 to 2500 nM.

`CCCCCCCOc1ccc(-c2cnc(-c3ccc(C[C@H](NC(=O)c4ccc(OC)cc4F)C(=O)O)cc3)nc2)cc1` [Compound 109]: the EC50 lay within 800 to 2500 nM.

Turning to `CCCCCCCOc1ccc(-c2cnc(-c3ccc(C[C@H](NC(=O)c4ccc(C)cc4)C(=O)O)cc3)nc2)cc1` [Compound 110], the EC50 was 800 to 2500 nM.

With `CCCCCCCOc1ccc(-c2cnc(-c3ccc(C[C@H](NC(=O)c4cccc(C)c4)C(=O)O)cc3)nc2)cc1` [Compound 111], the EC50 was 800 to 2500 nM.

`CCCCCCCOc1ccc(-c2cnc(-c3ccc(C[C@H](NC(=O)c4ccc(CC(C)(C)C)cc4)C(=O)O)cc3)nc2)cc1` [Compound 112]: the EC50 was in the range of 800 to 2500 nM.

Consider `CCCCCCCOc1ccc(-c2cnc(-c3ccc(C[C@H](NC(=O)c4ccc(C(C)=O)cc4)C(=O)O)cc3)nc2)cc1` [Compound 113], for which the EC50 was 800 to 2500 nM.

With `CCCCCCCOc1ccc(-c2cnc(-c3ccc(C[C@H](NC(=O)c4ccc(O)cc4)C(=O)O)cc3)nc2)cc1` [Compound 114, (S)-3-(4-(5-(4-(heptyloxy)phenyl)pyrimidin-2-yl)phenyl)-2-(4-hydroxybenzamido)propanoic acid], the EC50 lay within 800 to 2500 nM.

Regarding `CCCCCCCOc1ccc(-c2cnc(-c3ccc(C[C@H](NC(=O)c4ccc(C(N)=O)cc4)C(=O)O)cc3)nc2)cc1` [Compound 115], the EC50 was in the range of 800 to 2500 nM.

With `CCCCCCCOc1ccc(-c2cnc(-c3ccc(C[C@H](NC(=O)c4c(Cl)ccc(F)c4Cl)C(=O)O)cc3)nc2)cc1` [Compound 116], the EC50 lay within 800 to 2500 nM.

For `CCCCCCCOc1ccc(-c2cnc(-c3ccc(C[C@H](NC(=O)c4ccc(C)c(C)c4)C(=O)O)cc3)nc2)cc1` [Compound 117], the 50% effective concentration (EC50) is < 800 nM.

Consider `CCCCCCCOc1ccc(-c2cnc(-c3ccc(C[C@H](NC(=O)c4ccc(OC)c(C)c4)C(=O)O)cc3)nc2)cc1` [Compound 118], for which the concentration for a half-maximal effect (EC50) was < 800 nM.

Turning to `CCCCCCCOc1ccc(-c2cnc(-c3ccc(C[C@H](NC(=O)c4ccccc4C)C(=O)O)cc3)nc2)cc1` [Compound 119], the EC50 was < 800 nM.

Take `CCCCCCCOc1ccc(-c2cnc(-c3ccc(C[C@H](NC(=O)c4ccc(OC(F)(F)F)cc4)C(=O)O)cc3)nc2)cc1` [Compound 120]: the EC50 lay within 800 to 2500 nM.

In the case of `CCCCCCCOc1ccc(-c2cnc(-c3ccc(C[C@H](NC(=O)c4ccc(OCC(C)C)cc4)C(=O)O)cc3)nc2)cc1` [Compound 121], the EC50 was in the range of 800 to 2500 nM.

For `CCCCCCCOc1ccc(-c2cnc(-c3ccc(C[C@H](NC(=O)c4ccc(S(=O)(=O)C(C)C)cc4)C(=O)O)cc3)nc2)cc1` [Compound 122], the EC50 fell in the range of 800 to 2500 nM.

Turning to `CCCCCCCOc1ccc(-c2cnc(-c3ccc(C[C@H](NC(=O)c4ccc(S(C)(=O)=O)cc4Cl)C(=O)O)cc3)nc2)cc1` [Compound 123], the EC50 was in the range of 800 to 2500 nM.

For `CCCCCCCOc1ccc(-c2cnc(-c3ccc(C[C@H](NC(=O)c4ccc(NCCCC)cc4)C(=O)O)cc3)nc2)cc1` [Compound 124], the EC50 fell in the range of 800 to 2500 nM.

In the case of `CCCCCCCOc1ccc(-c2cnc(-c3ccc(C[C@H](NC(=O)c4ccc(OC(C)(C)C)cc4)C(=O)O)cc3)nc2)cc1` [Compound 125], the EC50 was in the range of 800 to 2500 nM.

In the case of `CCCCCCCOc1ccc(-c2cnc(-c3ccc(C[C@H](NC(=O)c4ccc(CO)cc4)C(=O)O)cc3)nc2)cc1` [Compound 126], the concentration giving a half-maximal response (EC50) was 800 to 2500 nM.

Turning to `CCCCCCCOc1ccc(-c2cnc(-c3ccc(C[C@H](NC(=O)c4ccc(S(=O)(=O)CC)cc4)C(=O)O)cc3)nc2)cc1` [Compound 127], the EC50 is 800 to 2500 nM.

On to `CCCCCCCOc1ccc(-c2cnc(-c3ccc(C[C@H](NC(=O)c4ccc(C(=O)N(C)C)cc4)C(=O)O)cc3)nc2)cc1` [Compound 128], for which the EC50 was in the range of 800 to 2500 nM.

For the compound `CCCCCCCOc1ccc(-c2cnc(-c3ccc(C[C@H](NC(=O)c4ccc(OCCCC)cc4)C(=O)O)cc3)nc2)cc1` [Compound 129], the EC50 lay within 800 to 2500 nM.

In the case of `CCCCCCCOc1ccc(-c2cnc(-c3ccc(C[C@H](NC(=O)c4cc(C(C)C)no4)C(=O)O)cc3)nc2)cc1` [Compound 130], the EC50 was < 800 nM.

In the case of `CCCCCCCOc1ccc(-c2cnc(-c3ccc(C[C@H](NC(=O)c4cnc(C(C)C)nc4)C(=O)O)cc3)nc2)cc1` [Compound 131], the EC50 was in the range of 800 to 2500 nM.

Consider `CCCCCCCOc1ccc(-c2cnc(-c3ccc(C[C@H](NC(=O)c4coc(C(C)C)n4)C(=O)O)cc3)nc2)cc1` [Compound 132], for which the EC50 lay within 800 to 2500 nM.

With `CCCCCCCOc1ccc(-c2cnc(-c3ccc(C[C@H](NC(=O)c4ccc(C(C)(C)C)o4)C(=O)O)cc3)nc2)cc1` [Compound 133], the concentration giving a half-maximal response (EC50) lay within 800 to 2500 nM.

For `CCCCCCCOc1ccc(-c2cnc(-c3ccc(C[C@H](NC(=O)c4ccc(CN(C)C)cc4)C(=O)O)cc3)nc2)cc1` [Compound 134], the half-maximal effective concentration (EC50) was in the range of 800 to 2500 nM.

In the case of `CCCCCCCOc1ccc(-c2cnc(-c3ccc(C[C@H](NC(=O)c4cc(C(C)C)on4)C(=O)O)cc3)nc2)cc1` [Compound 135], the concentration for a half-maximal effect (EC50) was in the range of 800 to 2500 nM.

For `CCCCCCCOc1ccc(-c2cnc(-c3ccc(C[C@H](NC(=O)c4cc(C(C)(C)C)n[nH]4)C(=O)O)cc3)nc2)cc1` [Compound 136], the EC50 lay within 5000 to 10000 nM.

Regarding `CCCCCCCOc1ccc(-c2cnc(-c3ccc(C[C@H](NC(=O)c4ccc(CC)s4)C(=O)O)cc3)nc2)cc1` [Compound 137], the EC50 lay in the range of 800 to 2500 nM.

Consider `CCCCCCCOc1ccc(-c2cnc(-c3ccc(C[C@H](NC(=O)c4ccc(CC)o4)C(=O)O)cc3)nc2)cc1` [Compound 138], for which the EC50 is 800 to 2500 nM.

In the case of `CCCCCCCOc1ccc(-c2cnc(-c3ccc(C[C@H](NC(=O)c4cnn(C(C)C)c4)C(=O)O)cc3)nc2)cc1` [Compound 139], the EC50 lay within 800 to 2500 nM.

As for `CCCCCCCOc1ccc(-c2cnc(-c3ccc(C[C@H](NC(=O)c4ccc(C(F)(F)F)s4)C(=O)O)cc3)nc2)cc1` [Compound 140], the concentration for a half-maximal effect (EC50) was in the range of 2500 to 5000 nM.

Turning to `CCCCCCCOc1ccc(-c2cnc(-c3ccc(C[C@H](NC(=O)c4nnc(C(C)(C)C)s4)C(=O)O)cc3)nc2)cc1` [Compound 141], the EC50 fell in the range of 800 to 2500 nM.

In the case of `CCCCCCCOc1ccc(-c2cnc(-c3ccc(C[C@H](NC(=O)c4ncc(C(C)(C)C)s4)C(=O)O)cc3)nc2)cc1` [Compound 142], the EC50 was < 800 nM.

(Values after US8778923B2, “GLP-1 receptor modulators” (Receptos, Inc., priority 2011, dated 2014).)
